Measured values published in PubChem BioAssay AID248 (DTP/NCI, 2004).
Toxic doses and inconclusive results are not listed. No stated cut-off is given here; in the data, active means T/C of 150% or more; inactive means T/C below 125%.

Tested on: L1210 leukemia ip in BDF1 mice, survival T/C
Experiment: NCI In Vivo Anticancer Drug Screen. Data for tumor model L1210 Leukemia (intraperitoneal) in B6D2F1 (BDF1) mice
Conditions: endpoint: mean survival time, higher = longer survival
In short: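 Each compound was tested against a transplantable tumor grown in mice. The endpoint was survival, with treated animals benchmarked against vehicle controls as a simple ratio.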

[1] = dose: 100.0 mg/kg/injection, schedule: Q01DX001 (ip), vehicle: saline
[2] = dose: 200.0 mg/kg/injection, schedule: Q01DX001 (ip), vehicle: saline
[3] = dose: 400.0 mg/kg/injection, schedule: Q01DX001 (ip), vehicle: saline
[4] = dose: 100.0 mg/kg/injection, schedule: Q04DX003 (ip), vehicle: Klucel (hydroxypropylcellulose) (HPC)
[5] = dose: 200.0 mg/kg/injection, schedule: Q04DX003 (ip), vehicle: Klucel (hydroxypropylcellulose) (HPC)

Measured: T/C

COC(=O)[C@H]1[C@H]2C[C@@H]3c4[nH]c5cc(OC)ccc5c4CCN3C[C@H]2C[C@@H](OC(=O)c2cc(OC)c(OC)c(OC)c2)[C@@H]1OC
inactive: dose: 1.0 mg/kg/injection, schedule: Q01DX Z (ip), vehicle: carboxymethylcellulose (CMC) 100 % of control | dose: 1.56 mg/kg/injection, schedule: Q01DX001 (ip), vehicle: other 100 % of control | dose: 1.56 mg/kg/injection, schedule: Q01DX009 (ip), vehicle: saline 111 % of control | dose: 1.56 mg/kg/injection, schedule: Q04DX003 (ip), vehicle: other 95 % of control | dose: 2.0 mg/kg/injection, schedule: Q01DX Z (ip), vehicle: carboxymethylcellulose (CMC) 100 % of control | dose: 3.12 mg/kg/injection, schedule: Q01DX001 (ip), vehicle: other 96 % of control | dose: 3.12 mg/kg/injection, schedule: Q01DX009 (ip), vehicle: saline 109 % of control | dose: 3.12 mg/kg/injection, schedule: Q04DX003 (ip), vehicle: other 95 % of control | dose: 5.0 mg/kg/injection, schedule: Q01DX001 (ip), vehicle: other 92 % of control | dose: 5.25 mg/kg/injection, schedule: Q01DX009 (ip), vehicle: other 98 % of control | dose: 6.25 mg/kg/injection, schedule: Q01DX001 (ip), vehicle: other 96 % of control | dose: 6.25 mg/kg/injection, schedule: Q01DX009 (ip), vehicle: saline 101 % of control | dose: 6.25 mg/kg/injection, schedule: Q04DX003 (ip), vehicle: other 115 % of control | dose: 6.25 mg/kg/injection, schedule: Q04DX003 (ip), vehicle: saline 90 % of control | dose: 9.2 mg/kg/injection, schedule: Q04DX003 (ip), vehicle: other 101 % of control | dose: 10.0 mg/kg/injection, schedule: Q01DX001 (ip), vehicle: other 100 % of control | dose: 12.5 mg/kg/injection, schedule: Q01DX001 (ip), vehicle: carboxymethylcellulose (CMC) 103 % of control | dose: 12.5 mg/kg/injection, schedule: Q01DX009 (ip), vehicle: saline 104 % of control | dose: 12.5 mg/kg/injection, schedule: Q04DX003 (ip), vehicle: saline 108 % of control | dose: 14.0 mg/kg/injection, schedule: Q04DX003 (ip), vehicle: other 88 % of control | dose: 20.0 mg/kg/injection, schedule: Q01DX001 (ip), vehicle: other 97 % of control | dose: 21.0 mg/kg/injection, schedule: Q04DX003 (ip), vehicle: other 95 % of control | dose: 25.0 mg/kg/injection, schedule: Q01DX009 (ip), vehicle: saline 92 % of control | dose: 25.0 mg/kg/injection, schedule: Q04DX003 (ip), vehicle: saline 103 % of control | dose: 40.0 mg/kg/injection, schedule: Q01DX001 (ip), vehicle: other 97 % of control | dose: 80.0 mg/kg/injection, schedule: Q01DX001 (ip), vehicle: other 94 % of control

CN(C)/N=C1\CCc2ccccc21
inactive: [1] 106 % of control | dose: 100.0 mg/kg/injection, schedule: Q01DX009 (ip), vehicle: saline 102 % of control | [2] 113 % of control | [3] 101 % of control

CCOC(OCC)C(C)(C)OC=O
inactive: [1] 103 % of control | [2] 103 % of control | [3] 103 % of control

CCOC(=O)C(C)(C)CN(CC(C)(C)C(=O)OCC)c1ccccc1
inactive: dose: 100.0 mg/kg/injection, schedule: Q04DX003 (ip), vehicle: saline with Tween-80 106 % of control | dose: 200.0 mg/kg/injection, schedule: Q04DX003 (ip), vehicle: saline with Tween-80 106 % of control | dose: 400.0 mg/kg/injection, schedule: Q04DX003 (ip), vehicle: saline with Tween-80 104 % of control

CNC(=O)Nc1ccccc1[N+](=O)[O-]
inactive: dose: 100.0 mg/kg/injection, schedule: Q04DX002 (ip), vehicle: Klucel (hydroxypropylcellulose) (HPC) 108 % of control | dose: 200.0 mg/kg/injection, schedule: Q04DX002 (ip), vehicle: Klucel (hydroxypropylcellulose) (HPC) 97 % of control

N#CC(N)=NC1CCC(C2CCC(N)CC2)CC1 (configuration not stated)
inactive: dose: 100.0 mg/kg/injection, schedule: Q01DX009 (ip), vehicle: Klucel (hydroxypropylcellulose) (HPC) 97 % of control | [4] 107 % of control | dose: 200.0 mg/kg/injection, schedule: Q01DX009 (ip), vehicle: Klucel (hydroxypropylcellulose) (HPC) 97 % of control | [5] 94 % of control | dose: 400.0 mg/kg/injection, schedule: Q01DX009 (ip), vehicle: Klucel (hydroxypropylcellulose) (HPC) 98 % of control | dose: 400.0 mg/kg/injection, schedule: Q04DX003 (ip), vehicle: Klucel (hydroxypropylcellulose) (HPC) 97 % of control

CC(=O)Nc1cccc(OCCOc2cccc([N+](=O)[O-])c2)c1
inactive: [1] 100 % of control | [2] 101 % of control | [3] 101 % of control

CCOC(=O)CC(=O)c1ccc(OC)cc1
inactive: dose: 100.0 mg/kg/injection, schedule: Q01DX001 (ip), vehicle: Klucel (hydroxypropylcellulose) (HPC) 101 % of control | dose: 200.0 mg/kg/injection, schedule: Q01DX001 (ip), vehicle: Klucel (hydroxypropylcellulose) (HPC) 106 % of control | dose: 400.0 mg/kg/injection, schedule: Q01DX001 (ip), vehicle: Klucel (hydroxypropylcellulose) (HPC) 107 % of control

Cc1ccc(N=Cc2ccc([N+](=O)[O-])s2)cc1Cl
inactive: [4] 91 % of control | [5] 89 % of control
